Results: US11826357B2, “Bacterial efflux pump inhibitors” (RUTGERS, THE STATE UNIVERSITY OF NEW JERSEY, priority 2017, dated 2023)
Structures can show the parent of a compound that is named as a salt.

Tests used:
[1] = system: Pseudomonas aeruginosa ATCC 27853; test: Standard bacterial EPI assay: MIC of levofloxacin in the absence and presence of the EPI; assay type: cell-based; conditions: P. aeruginosa ATCC 27853
Method: (§1) MIC assays were conducted in accordance with Clinical and Laboratory Standards Institute (CLSI) guidelines for broth microdilution. A 96-well plate containing cation-adjusted Mueller-Hinton (CAMH broth with 2-fold serial dilution of compounds was inoculated with log-phase bacterial at 5×10^5 CFU/mL. The final volume in each well was 100 μL. Each compound was tested in duplicate. The microtiter plates were incubated in an aerobic environment for 18 hours at 37° C. Then the bacterial growth was tested by reading the plate with a VersaMax plate reader (Molecular Devices, Inc.) at 600 nm. The MIC was defined as the lowest compound concentration that inhibited 90% of bacteria growth.
The EPI assay for the purposes of these studies represents a MIC assay in which the MIC of the antibiotic against the bacteria is tested in the presence of an experimental efflux pump inhibitor (EPI). […] Using serial dilutions of the EPI, its enhancement of antibiotic activity was then evaluated. […]
The impact of Example 2 on the MIC values of two test antibiotics (levofloxacin and cefepime) against P. aeruginosa ATCC 27853 were evaluated using our standard EPI assay. […]
In our standard EPI assay, the MIC of the test antibiotic is determined in the absence and presence of sub-inhibitory concentrations of the EPI. […]

P. aeruginosa ATCC 27853 = test: Intrinsic MIC assay (CLSI broth microdilution); assay type: cell-based; conditions: Pseudomonas aeruginosa, ATCC27853, compound alone
Method: as §1
The intrinsic MIC of the experimental EPIs was tested with the method described. The 2-fold serial dilution begins with 100 μg/mL of tested compound in the first column of the 96-well plates. The following Gram-negative bacterial strains were included in these assays: […]

## NCCC[C@H](N)CNC(=O)c1[nH]c2cc(-c3ccc(F)cc3)ccc2c1C1CC1 [Example 2, (S)-3-cyclopropyl-N-(2,5-diaminopentyl)-6-(4-fluorophenyl)-1H-indole-2-carboxamide dihydrochloride]
[1]; 6.25 μg/mL (½×MIC) of the EPI
  MIC of levofloxacin in the presence of the EPI: 0.032 µg/mL
[1]; 6.25 μg/mL of the EPI
  fold reduction of the MIC of levofloxacin relative to the absence of EPI: 32 fold
P. aeruginosa ATCC 27853
  MIC: 12.5 µg/mL
